# From patent US20110020457A1, “POLYMER-SURFACTANT NANOPARTICLES FOR SUSTAINED RELEASE OF COMPOUNDS” (Wayne State University, priority 2006, published 2011)
# “Also recorded” adds a separate entry of the source. Read-outs that look alike come from different tables or passages of the source.
# Assays:
# NCI-ADR/RES cells [1] = test: Cytotoxicity in drug-resistant cells, MTS assay (Example 5); format: cell-based
# Experimental: (§1) For cytotoxicity studies, NCI-ADR/RES or MCF-7 cells were seeded in 96-well plates at a seeding density of 5000-10000 cells per well per 0.1 mL of medium and allowed to attach overnight. […] Untreated cells and empty nanoparticles were used as controls. […] Cytotoxicity was determined over a period of 10 days using a commercially available MTS assay (Promega). Results were analyzed by using an ANOVA. Differences were considered significant at P<0.05.
# [2] = cited from earlier work
# NCI-ADR/RES cells [3] = test: Intracellular distribution of doxorubicin by fluorescence microscopy; format: cell-based; conditions: 2.5 μg/mL doxorubicin, 2 h
# Experimental: At the end of the treatment period, cells were washed three times with cold PBS and then lysed using 100 μL of cell culture lysis reagent (CCLR; Promega). The protein content of the cell lysates was determined using the Pierce (Rockford, Ill.) BCA protein assay. Cell lysates were then mixed with 300 μL of methanol and incubated at 37° C. for 6 h at 100 rpm. Samples were centrifuged at 14 000 rpm for 10 min at 4° C. The concentration of rhodamine in the methanolic extract was determined by HPLC as described before. Data were expressed as rhodamine accumulation normalized to total cell protein. For fluorescence microscopy, the uptake and intracellular distribution of doxorubicin in NCI-ADR/RES cells were determined qualitatively using fluorescence microscopy. Cells ([…]) were seeded on coverslips placed in 35 mm dishes.
# At 2 h post-treatment, cells were rinsed with drug-free medium and incubated with 75 nM Lysotracker Green (Invitrogen) for 30 min. Cells were then washed and counterstained with DAPI (4′,6-diamidino-2-phenylindole, Invitrogen). Images were captured with a BX60 Olympus fluorescence microscope. Images captured using red, blue, and green filters were overlaid to determine localization and association of doxorubicin-associated red fluorescence in the nucleus and endolysosomes, respectively.
# MCF-7 cells [4] = test: Cytotoxicity in drug-sensitive cells, MTS assay (Example 5); format: cell-based, Human; conditions: doxorubicin in solution
# Experimental: as §1
# [5] = system: JC tumors (doxorubicin-resistant mammary adenocarcinoma); test: Tumor growth after combination PDT and chemotherapy in drug-resistant tumor; format: in vivo, female Balb/c mice; conditions: single i.v. dose, 4 mg/kg doxorubicin
# Excerpt: FIG. 16. Nanoparticle-mediated combination PDT and chemotherapy overcame tumor drug resistance in vivo. […] About twenty four hours after treatment administration, tumors were exposed to light of 665 nm wavelength (50 J/cm^2). Animals were then monitored for tumor growth. The results are shown as percent increase in tumor volume as a function of time after treatment (days), with the various treatment protocols.
# Nanoparticle-mediated combination PDT-chemotherapy inhibited drug-resistant tumor growth. The in vivo efficacy of nanoparticle-mediated combination chemo- and photodynamic therapy was studied in a mouse model of drug-resistant tumor. Drug-resistant JC tumors (doxorubicin-resistant mammary adenocarcinoma) grown subcutaneously in female Balb/c mice were used in these experiments. Mice were administered a single i.v. dose of the different treatments. […] About 24 hrs after treatment administration, tumors were exposed to light of 665 nm wavelength (50 J/cm^2). Animals were then monitored for tumor growth.
# [6] = pH 7.4
# Experimental: In vitro release studies: In vitro release of nanoparticle-encapsulated drug was determined under sink conditions. The term “sink conditions” refers to release conditions in which the volume of the buffer used is sufficient to dissolve all of the drug present in the delivery system. Such conditions are used to assure that the amount of drug released is not limited by the degree of solubility in the buffer or solvent used. Nanoparticles (˜5 mg) were dispersed in 0.5 ml of phosphate-buffered saline (PBS, pH 7.4, 0.15M) and suspended in DispoDialyzer® (10 kDa MWCO, Pierce) dialysis tubes. These were then placed in a 15-ml centrifuge tube containing 10 ml of PBS. The whole assembly was shaken at 100 rpm and 37.0±0.5° C. in an orbital shaker (Brunswick Scientific, C24 incubator shaker, NJ). […] Drug concentration in the release samples was determined as in drug loading determinations. Stability of different drugs under in vitro release conditions was determined and the drug release profile was corrected for degradation, if any.
# Initially, the stability of these drugs under the release conditions (PBS, pH 7.4 and 37° C.) were investigated.
# MCF-7 cells [7] = test: Cytotoxicity of methylene blue PDT; conditions: 0.3 or 0.6 μM, no light
# ROS = test: Nanoparticle-mediated ROS generation ex vitro (APF fluorescence); conditions: photo-activated
# Excerpt: PBS and empty nanoparticles were used as negative controls. To determine the effect of dose of light on the amount of ROS generated, above samples were photo-activated with 10 consecutive doses of light (1200 mJ/cm^2 per dose) measuring fluorescence after each illumination. […] Experiments performed as above but without light irradiation were used as light negative controls.
# [8] = also after multiple dosing; cited from earlier work
structure (smiles),measurement,setting,value
COc1cccc2c1C(=O)c1c(O)c3c(c(O)c1C2=O)C[C@@](O)(C(=O)CO)C[C@@H]3O[C@H]1C[C@H](N)[C@H](O)[C@H](C)O1 [Doxorubicin],Concentration required to induce cytotoxicity,"NCI-ADR/RES cells [1]; doxorubicin in solution, drug-resistant cells",> 50 µg/mL
same,pKa,[2],~8.2
same,Ionized fraction,[2]; pH 7.4,about 86%
same,Doxorubicin in nuclei of cells,NCI-ADR/RES cells [3],No or insignificant doxorubicin fluorescence
same,Intracellular distribution of doxorubicin,NCI-ADR/RES cells [3]; listed as Free doxorubicin,"diffuse distribution within the cells, with a significant fraction appearing in vesicles located near the cell membrane; also recorded: present near the cell surface"
same,Cytotoxicity in drug-sensitive cells,MCF-7 cells [4],dose-dependent cytotoxicity
same,Therapeutic effect on tumor growth,[5],did not show a significant therapeutic effect
same,Stability under the release conditions,[6],"biphasic, first-order degradation profile"
Clc1cccc(Cl)c1N=C1NCCN1 [Clonidine],Stability under the release conditions,[6],stable
COc1ccc(CCN(C)CCCC(C#N)(c2ccc(OC)c(OC)c2)C(C)C)cc1OC (stereo not drawn) [Verapamil],Effect on resistance to doxorubicin,NCI-ADR/RES cells [1]; verapamil 23.0 μg/mL with doxorubicin 0.4 μg/mL in solution,reversed the resistance to doxorubicin
"CN(C)c1ccc2nc3ccc(=[N+](C)C)cc-3sc2c1 [methylene blue, Methylene blue]",Cytotoxic effect without light-activation,MCF-7 cells [7],no significant effect
same,Increase in fluorescence at 0.6 μM compared to 0.3 μM,ROS,2 fold
"CCCCC(CC)COC(=O)CC(C(=O)OCC(CC)CCCC)S(=O)(=O)[O-].[Na+] (stereo not drawn) [AOT, dioctylsodium sulfosuccinate]",pKa,[2]; sulfonic group,< 1
same,Elimination and accumulation in the body,[8],"easily removed from the body through renal elimination, and does not accumulate"
"O=C(O)Cc1ccccc1Nc1c(Cl)cccc1Cl [Diclofenac, diclofenac sodium]",Stability under the release conditions,[6],stable
